Assay results taken from patent publication EP0306251A2, “Azolidinedione derivatives” (PFIZER INC., priority 1987, dated 1989).

Columns and labels:
[1] = target: T1, partially purified aldose reductase enzyme obtained from human placenta (Homo sapiens, UniProt P15121); test: inhibition of aldose reductase enzyme activity (procedure of Hayman et al., modified by Sestanj et al.); type: biochemical; conditions: 10^-5M
T1 construct: partially purified aldose reductase enzyme obtained from human placenta; from tissue; host or cells: human placenta
Protocol: The following spiro-3-heteroazolone compounds of Examples 4A, 4B, 6-9, 10A, 10B and 14, respectively, were tested for their ability to reduce or inhibit aldose reductase enzyme activity via the procedure of S. Hayman et al., as described in the Journal of Biological Chemistry, Vol. 240, p. 877 (1965) and as modified by K. Sestanj et al. in U.S. Patent No. 3,821,383. In every case, the substrate .employed was partially purified aldose reductase enzyme obtained from human placenta.

[2] = tested on: sorbitol accumulation in the sciatic nerve and lens of streptozotocinized (i.e., diabetic) rats; test: inhibition of sorbitol accumulation in sciatic nerve and lens of streptozotocinized rats; type: in vivo; conditions: for Percent Inhibition (%) Lens / Percent Inhibition (%) Sciatic Nerve: sorbitol measured at 27 hours
Protocol: The following spiro-3-heteroazolone compounds of Examples 4A, 4B, 6 and 10A, respectively, were tested for their ability to reduce or inhibit sorbitol accumulation in the sciatic nerve and lens of streptozotocinized (i.e., diabetic) rats by the procedure essentially described in U.S. Patent No. 3,821,383. In the present study, the amount of sorbitol accumulation in the sciatic nerve and lens of each test animal was measured 27 hours after induction of diabetes. The compounds were then administered orally at the dose levels indicated at 4, 8 and 24 hours following the administration of streptozotocin. The results obtained in this manner are presented below in terms of percent inhibition (%) afforded by the test compound as compared to the case where no compound was administered (i.e., the untreated animal where sorbitol levels normally rise from approximately 50-100 mM/g. tissue to as high as 400 mM/g. tissue in the 27-hour test period): […]

[3] = 0.25 mg./kg. orally at 4, 8 and 24 hours after streptozotocin
[4] = 5.0 mg./kg. orally at 4, 8 and 24 hours after streptozotocin
[5] = 1.0 mg./kg. orally at 4, 8 and 24 hours after streptozotocin
[6] = 0.1 mg./kg. orally at 4, 8 and 24 hours after streptozotocin

C[C@@H]1C[C@]2(NC(=O)NC2=O)c2cc(Cl)cnc2O1 (racemic) [Product of Example 4A, (±)-cis-8'-chloro-2',3'-dihydro-2'-methyl-spiro-[imidazolidine-4,4'-4'H-pyrano[2,3-b]pyridine]-2,5-dione]
inhibition at 10 µM [1]: 83%
Percent Inhibition (%) Lens [2, 3]: 22%
Percent Inhibition (%) Lens [2, 4]: 89%
Percent Inhibition (%) Sciatic Nerve [2, 3]: 34%
Percent Inhibition (%) Sciatic Nerve [2, 4]: 98%

CC1CC2(NC(=O)NC2=O)c2cc(Cl)cnc2O1 (racemic) [Product of Example 4B, (±)-trans-6'-chloro-2',3'-dihydro-2'-methyl-spiro-[imidazolidine-4,4'-4'H-pyrano[2,3-b]pyridine]-2,5-dione]
inhibition at 10 µM [1]: 77%
Percent Inhibition (%) Lens [2, 3]: 32%
Percent Inhibition (%) Sciatic Nerve [2, 3]: 13%

C[C@@H]1C[C@]2(NC(=O)NC2=O)c2cc(Br)cnc2O1 (racemic) [Product of Example 6, (±)-cis-6'-bromo-2',3'-dihydro-2'-methyl-spiro-[imidazolidine-4,4'-4'H-pyrano[2,3-b]pyridine]-2,5-dione]
inhibition at 10 µM [1]: 80%
Percent Inhibition (%) Lens [2, 5]: 67%
Percent Inhibition (%) Sciatic Nerve [2, 5]: 73%

O=C1NC(=O)C2(CCOc3ncc(Cl)cc32)N1 (racemic) [Product of Example 7, (±)-6-chloro-2',3'-dihydro-spiro-[imidazolidine-4,4'-4'H-pyrano[2,3-b]pyridine]-2,5-dione]
inhibition at 10 µM [1]: 60%

C[C@@H]1C[C@]2(NC(=O)NC2=O)c2cccnc2O1 (racemic) [Product of Example 8, (±)-cis-2',3'-dihydro-2'methyl-spiro-[imidazolidine-4, 4'-4'H-pyrano[2,3-b]pyridine]-2,5-dione]
inhibition at 10 µM [1]: 57%

C[C@@H]1C[C@]2(NC(=O)NC2=O)c2cc(F)cnc2O1 (racemic) [Product of Example 9, (±)-cis-6'-fluoro-2',3'-dihydro-2'-methyl-spiro-[imidazolidine-4,4'-4H-pyrano-[2,3-b]pyridine]-2,5-dione]
inhibition at 10 µM [1]: 77%

C[C@@H]1C[C@]2(NC(=O)NC2=O)c2cc(Cl)cnc2O1 [Product of Example 10A, (4'S)(2'R)-6'-chloro-2',3'-dihydro-2'-methyl-spiro-[imidazolidine-4,4'-4'H-pyrano[2,3-b]pyridine]-2,5-dione]
inhibition at 10 µM [1]: 100%
Percent Inhibition (%) Lens [2, 6]: 33%
Percent Inhibition (%) Lens [2, 5]: 73%
inhibit the formation of sorbitol levels in both the sciatic nerve and lens of diabetic rats ([2]; oral route, dose levels ranging from 0.1-10.0 mg./kg., sciatic nerve and lens): significantly high degree
Percent Inhibition (%) Sciatic Nerve [2, 6]: 43%
Percent Inhibition (%) Sciatic Nerve [2, 5]: 78%

C[C@H]1C[C@@]2(NC(=O)NC2=O)c2cc(Cl)cnc2O1 [Product of Example 10B, (2'S)(4'R)-6'-chloro-2',3^1-dihydro-2'-methyl-spiro-[imidazolidine-4,4'-4'H-pyrano[2,3-b]pyridine]-2,5-dione]
inhibition at 10 µM [1]: 100%

C[C@@H]1C[C@]2(NC(=O)NC2=O)c2cc(Cl)c[n+]([O-])c2O1 [Product of Example 14, (4'S)(2'R)-6'-chloro-2',3'-dihydro-2'-methyl-spiro-[imidazolidine-4,4'-4'H-pyrano[2,3-b]pyridine]-2,5-dione-8'-oxide]
inhibition at 10 µM [1]: 79%
